From US7541463B2, “Sulfur-containing naphthalimide derivatives” (East China University of Science and Technology, priority 2003, dated 2009) come the findings set out here.

The structures appear in SMILES notation. Entries after “also recorded” stand apart in the source; their conditions may differ.

Series [1] has as its system S-180 sarcoma. Put plainly: In vivo tumor growth inhibition, S-180 sarcoma in mice. Particulars: for activity against mice S180 sarcoma (in words): i.p. injection. The protocol: S-180 sarcoma developed for 7-11 days and in good growth trend was homogenated into cell suspension. The cell suspension was inoculated subcutaneously into right armpit of female KM mice (18˜22 g) (about 1.0−2.5×10^6 cells/mouse). After 24 h, the mice were grouped in random with compounds administrated by i.p. injection. From the next day on, the mice were given serial dosages. After treatment, animals were killed, and solid tumors were removed and weighed after the body weight were weighed. The inhibition rate was calculated as follows, and T-test was carried out: [(Average tumor weight of NS group−Average tumor weight of test group)/Average tumor weight of NS group]×100%.

The test system of series [2] is human lung adenocarcinoma cell A-549. Put plainly: Growth inhibition of A-549 cells, SRB protein staining assay. It counts as cell-based. To be noted: read-out: Growth inhibition effect to A-549 cell strain; for inhibition at 100 µM: A549, 10^−4 M; for inhibition at 10 µM: A549, 10^−5 M; for inhibition at 1 µM: A549, 10^−6 M; for inhibition at 0.1 µM: A549, 10^−7 M; for inhibition at 0.01 µM: A549, 10^−8 M. The protocol:
(§1) The cell growth inhibition of mice leukemia cell P388 was evaluated by MTT (microculture tetrozolium) assay, while the cell growth inhibition of human lung adenocarcinoma cell A-549 was evaluated by SRB (Sulforhodamine B) protein staining assay.
(§2) The procedure of SRB assay was as follows: appropriate amount of cells in log phase were seeded in 96-well plates according to the growing rate (90 ul/well). After cultured for 24 h, cells were exposed to serial dilutions of drugs in triplicate (10 ul/well). In addition, control wells of normal saline in corresponding concentrations and zeroing wells without cell were set. The cells were incubated in 5% CO2 humidified incubator at 37° C. After 72 h, the medium was removed and cells were fixed with cold 10% trichloric acid (TCA) at 4° C. for 1 h. The plates were washed with distilled water 5 times, and stained in room temperature with 4 mg/ml SRB (Sigma, diluted with 1% glacial acetic acid, 100 ul/well) for 15 minutes after air drying. SRB was then washed with 1% acetic acid 5 times. Plates were dried, followed by adding 150 ul/well Tris solution. Absorbance was measured at […] using a multiwell spectrophotometer. The inhibition effect of the compounds in test (percentage of growth inhibition) was calculated for each well: % inhibition=(A540control cells−A540treated cells)/A540control cells×100%.
(§3) The cell lines used were mice leukemia cell P388, human leukemia cell MOLT-4, human lung adenocarcinoma cell A-549, human gastric adenocarcinoma SGC-7901, human hepatocellular carcinoma BEL-7402 and human embryonal fibroblast WI-38 (commerially available from ATCC).
(§4) The exposure time to compounds was 48 h-72 h.

In series [3] the test system is human hepatocellular carcinoma BEL-7402. Put plainly: Growth inhibition of BEL-7402 cells (MTT or SRB assay). The class given is cell-based. To be noted: read-out: Growth inhibition effect to BEL-7402 cell strain; for inhibition at 100 µM: 10^−4 M; for inhibition at 10 µM: 10^−5 M; for inhibition at 1 µM: 10^−6 M; for inhibition at 0.1 µM: 10^−7 M; for inhibition at 0.01 µM: 10^−8 M. Here is the method: (§5) The procedure of MTT assay was as follows: appropriate amount of cells in log phase were seeded in 96-well plates (6000 cells/well, 15000 cells/well, 90ul/well) according to the growing rate. After cultured for 24 h, cells were exposed to serial dilutions of drugs in triplicate (10 ul/well). In addition, wells without cell, and wells without cell but with serial dilutions of drugs in case of using a colored-drug were set for zeroing. Then, the cells were cultured in 5% CO2 humidified incubator at 37° C. for 48 h. After treatment of drugs for 48 h, 20ul MTT (Sigma) which was diluted by normal saline to the concentration of 5 mg/ml was added to each well, 50ul/well 10%SDS-5% isobutanol-0.01% mol/LHCl was added after 4 h. After cultured overnight, absorbance was measured at 570 nm using a multiwell spectrophotometer. The inhibition effect of the compounds in test (percentage of growth inhibition) was calculated for each well: % inhibition=(OD570control cells−OD570treated cells)/OD570control cells×100%.
as §2
(§6) The methods used were MTT assay or SRB assay.
as §3, §4

For series [4], the system named is human leukemia cell MOLT-4. Briefly: Growth inhibition of MOLT-4 cells (MTT or SRB assay). To be noted: read-out: Growth inhibition effect to MOLT-4 cell strain; for inhibition at 100 µM: 10^−4 M; for inhibition at 10 µM: 10^−5 M; for inhibition at 1 µM: 10^−6 M; for inhibition at 0.1 µM: 10^−7 M; for inhibition at 0.01 µM: 10^−8 M. The class given is cell-based. The protocol:
as §5, §2, §6, §3, §4
(In general: Tetrazolium assays rely on reduction of a dye to a coloured formazan, in cell work by metabolically active cells.)

The test system of series [5] is human gastric adenocarcinoma SGC-7901. Briefly: Growth inhibition of SGC-7901 cells (MTT or SRB assay). To be noted: read-out: Growth inhibition effect to SGC-7901 cell strain; for inhibition at 100 µM: 10^−4 M; for inhibition at 10 µM: 10^−5 M; for inhibition at 1 µM: 10^−6 M; for inhibition at 0.1 µM: 10^−7 M; for inhibition at 0.01 µM: 10^−8 M. The class given is cell-based. Here is the method:
as §5, §2, §6, §3, §4

The test system of another series is mice leukemia cell P388. Put plainly: Growth inhibition of P388 cells, MTT assay. It counts as cell-based. Particulars: Mus musculus, read-out: Growth inhibition effect to P388 cell strain; for inhibition at 100 µM: 10^−4 M; for inhibition at 10 µM: 10^−5 M; for inhibition at 1 µM: 10^−6 M; for inhibition at 0.1 µM: 10^−7 M; for inhibition at 0.01 µM: 10^−8 M. Here is the method:
as §1, §5, §3, §4

The nature of series [6]: Body weight and deaths of S-180 bearing mice. It counts as in vivo.
The test system of series [7] is S-180 sarcoma. Put plainly: In vivo tumor growth inhibition, S-180 sarcoma in mice.
The subject of the next series is DNA. Briefly: DNA double strand break (further studies).
A further series concerns tumor cell cycle. Put plainly: Tumor cell cycle arrest (further studies). The class given is cell-based. To be noted: significantly dose-dependent.
In the next series the test system is tumor cell. Put plainly: Tumor cell apoptosis (further studies). The class given is cell-based.
A further series concerns H22 hepatoma. Briefly: In vivo tumor inhibition, H22 hepatoma. To be noted: compared with C16.
Where [8] appears, read: 75 mg/kg i.v, injected twice (Day 1 and Day 4).

A word on the inhibition: it is the drop in the measured response relative to a control, in per cent. One may read the melting point as the temperature, or range, at which the solid turns liquid. Consider `CN(C)CCN1C(=O)c2cccc3c2c(cc2nc(-c4cccc([N+](=O)[O-])c4)sc23)C1=O` [compound 7, N-(N′,N′-dimethylaminoethyl)-4H, 6H-9-m-nitrophenyl-benzo[de]thiazol[5,4-g]isoquinoline4,6-diketone], for which the melting point fell in the range of 229 to 230 °C. The “activity against mice S180 sarcoma (in words)” value in the series with S-180 sarcoma [1] (listed as C7) is recorded as “not potent; also recorded: active against S180 sarcoma, but weaker than C16”. Further, in series [2], the inhibition at 100 µM stood at 89.1%, the inhibition at 10 µM came to 89%, the inhibition at 1 µM came out at 72.3% and the inhibition at 0.1 µM stood at 71.3%. Moreover, the inhibition at 0.01 µM in series [2] was found to be 52%. Moreover, in series [3], the inhibition at 100 µM came to 96.9%, the inhibition at 10 µM is 95.8%, the inhibition at 1 µM turned out to be 80.6% and the inhibition at 0.1 µM is 33.1%. The inhibition at 0.01 µM in [3] was 17%. Also, in series [4], the inhibition at 100 µM worked out at 95.1%, the inhibition at 10 µM was determined as 99.2%, the inhibition at 1 µM was 100% and the inhibition at 0.1 µM was 13.3%. Moreover, in [4], the inhibition at 0.01 µM was determined as 0%. Moreover, in series [5], the inhibition at 100 µM was found to be 96.4%, the inhibition at 10 µM came out at 95.1%, the inhibition at 1 µM turned out to be 67% and the inhibition at 0.1 µM was 6.9%. The inhibition at 0.01 µM in [5] amounted to 3.4%. Besides, in the series with mice leukemia cell P388, the inhibition at 100 µM is 98.7%, the inhibition at 10 µM was 74.6%, the inhibition at 1 µM was 47.9% and the inhibition at 0.1 µM is 15.8%. Also, the inhibition at 0.01 µM in the series on mice leukemia cell P388 amounted to 18%.

In the case of `O=c1[nH]cc(F)c(=O)[nH]1` [5-FU], the “Weight of mice (g) Day 7” value in [6] (setting [8]) stood at 20.7 g. In addition, in the series with S-180 sarcoma [7] (setting [8]), the “Tumor growth inhibition %” value is 96.9% and the “Weight of tumor (g) mean ± SD” value stood at 0.05 ± 0.04 g.

For `CN(C)CCN1C(=O)c2cccc3cc(N)cc(c23)C1=O` [Amonafide, N-(β-dimethylaminoethyl)-3-amino-1,8-naphthalimide, reference compound], the “Weight of tumor (g) mean ± SD” value in the series on S-180 sarcoma [1] (S-180 sarcoma, 5 mg/kg i.p) was 1.12 ± 0.35 g; in the series with S-180 sarcoma [7] (10 mg/kg i.p) it was 1.37 ± 0.26 g. In addition, the “activity against mice S180 sarcoma (in words)” value in the series with S-180 sarcoma [1] is “not potent”. For the same compound, the “DNA double strand break” value with DNA is “induce the broken of DNA double strand”. In addition, the “Weight of mice (g) Day 7” value was found to be 32.0 g in [6] (5 mg/kg i.p) and 31.3 g in series [6] (10 mg/kg i.p). In addition, in the series with tumor cell cycle, the “tumor cell cycle arrest” value is “arrest tumor cell cycle in G2/M phase”. Besides, the “Tumor growth inhibition %” value in the series on S-180 sarcoma [7] (5 mg/kg i.p) came to 30.9%; in the series on S-180 sarcoma [7] (10 mg/kg i.p), 15.4%. The tumor cell apoptosis entry in the series on tumor cell is listed as “trigger tumor cell apoptosis”. Moreover, the “activity in parallel experiments (in words)” value in the series with H22 hepatoma is on record as “not as active”.

Take `COc1ccc(-c2nc3cc4c5c(cccc5c3s2)C(=O)N(CCN(C)C)C4=O)cc1` [compound 9, N-(N′,N′-dimethylaminoethyl)-4H, 6H-9-p-methoxy phenyl-benzo[de]thiazol[5,4-g]isoquinoline-4,6-diketone]: the melting point lay within 216 to 217 °C. The “activity against mice S180 sarcoma (in words)” value with S-180 sarcoma [1] (listed as C9) is reported as “not potent; also recorded: active against S180 sarcoma, but weaker than C16”. In series [2], the inhibition at 100 µM was found to be 94.9%, the inhibition at 10 µM stood at 93.9%, the inhibition at 1 µM turned out to be 94.5% and the inhibition at 0.1 µM is 69.4%. Besides, the inhibition at 0.01 µM in [2] was found to be 44.5%. In the series on mice leukemia cell P388, the inhibition at 100 µM was 95.1%, the inhibition at 10 µM stood at 92.3%, the inhibition at 1 µM came out at 78.2% and the inhibition at 0.1 µM stood at 15.2%. For the same compound, in the series with mice leukemia cell P388, the inhibition at 0.01 µM is 21%.

As to `CN(C)CCCn1c(=O)c2ccc3sc4ccccc4c4ccc(c1=O)c2c34` [compound 4, N-(N′, N′-dimethylaminopropyl)benzo[k, l]thioxanthene-3,4-dicarboximide], the melting point was in the range of 202 to 203 °C. In series [2], the inhibition at 100 µM amounted to 80.3%, the inhibition at 10 µM came to 92.9%, the inhibition at 1 µM came out at 73.5% and the inhibition at 0.1 µM is 33.4%. In addition, the inhibition at 0.01 µM in series [2] is 17.3%. For the same compound, in series [3], the inhibition at 100 µM amounted to 94.6%, the inhibition at 10 µM was 95%, the inhibition at 1 µM was 50.7% and the inhibition at 0.1 µM came to 24.3%. In series [3], the inhibition at 0.01 µM amounted to 17.9%. Further, in series [4], the inhibition at 100 µM stood at 100%, the inhibition at 10 µM was found to be 99.7%, the inhibition at 1 µM was determined as 93.9% and the inhibition at 0.1 µM was determined as 22.3%. For the same compound, the inhibition at 0.01 µM in series [4] stood at 0%. For the same compound, in series [5], the inhibition at 100 µM stood at 94.5%, the inhibition at 10 µM was 91.8%, the inhibition at 1 µM was 39.1% and the inhibition at 0.1 µM turned out to be 0.2%. Further, the inhibition at 0.01 µM in [5] is 13.8%. In addition, in the series on mice leukemia cell P388, the inhibition at 100 µM came to 100%, the inhibition at 10 µM was found to be 100%, the inhibition at 1 µM amounted to 23.1% and the inhibition at 0.1 µM is 11%. For the same compound, in the series on mice leukemia cell P388, the inhibition at 0.01 µM came to 16.2%.
